PMC3403540, “Active Hydrophilic Components of the Medicinal Herb Salvia miltiorrhiza (Danshen) Potently Inhibit Organic Anion Transporters 1 (Slc22a6) and 3 (Slc22a8)” (Evidence-based Complementary and Alternative Medicine : eCAM, 2012)
Counter-ions that a name gives are not always drawn. Like-named read-outs stand apart in the source and are kept apart here.

Assays:
[1] = target: T1, mOat3 (Mus musculus, UniProt O88909); parameters: method as in PMID 18381565; details: CHO-mOat3 cells, determined previously; cited from earlier work
T1 construct: expressed in transfected cells; host or cells: CHO (Chinese hamster ovary), stably transfected (CHO-mOat3)
T1 sequence (O88909 1-537): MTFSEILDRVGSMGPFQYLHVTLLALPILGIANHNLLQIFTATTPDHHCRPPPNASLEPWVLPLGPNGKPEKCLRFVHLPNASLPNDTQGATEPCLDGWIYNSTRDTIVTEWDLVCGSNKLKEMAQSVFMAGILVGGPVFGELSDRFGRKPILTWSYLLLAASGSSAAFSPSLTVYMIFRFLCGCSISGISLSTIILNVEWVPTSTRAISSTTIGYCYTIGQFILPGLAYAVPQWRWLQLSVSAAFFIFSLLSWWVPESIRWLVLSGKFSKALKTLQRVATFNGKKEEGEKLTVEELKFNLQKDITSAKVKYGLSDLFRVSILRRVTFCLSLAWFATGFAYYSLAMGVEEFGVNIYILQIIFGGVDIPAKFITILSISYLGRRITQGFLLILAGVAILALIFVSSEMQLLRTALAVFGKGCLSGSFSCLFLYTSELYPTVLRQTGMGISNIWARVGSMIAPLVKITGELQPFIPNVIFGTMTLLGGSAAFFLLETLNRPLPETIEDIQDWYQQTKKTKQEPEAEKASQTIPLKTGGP

[2] = target: T2, mOat1 (Mus musculus, UniProt Q8VC69); experiment: Inhibition of mOat1-mediated [3H]PAH uptake in CHO-mOat1 cells (cell accumulation assay); type: cell-based, murine; details: read-out: inhibition of mOat1-mediated PAH uptake
T2 construct: expressed in transfected cells; host or cells: CHO (Chinese hamster ovary), stably transfected (CHO-mOat1)
T2 sequence (Q8VC69 1-545): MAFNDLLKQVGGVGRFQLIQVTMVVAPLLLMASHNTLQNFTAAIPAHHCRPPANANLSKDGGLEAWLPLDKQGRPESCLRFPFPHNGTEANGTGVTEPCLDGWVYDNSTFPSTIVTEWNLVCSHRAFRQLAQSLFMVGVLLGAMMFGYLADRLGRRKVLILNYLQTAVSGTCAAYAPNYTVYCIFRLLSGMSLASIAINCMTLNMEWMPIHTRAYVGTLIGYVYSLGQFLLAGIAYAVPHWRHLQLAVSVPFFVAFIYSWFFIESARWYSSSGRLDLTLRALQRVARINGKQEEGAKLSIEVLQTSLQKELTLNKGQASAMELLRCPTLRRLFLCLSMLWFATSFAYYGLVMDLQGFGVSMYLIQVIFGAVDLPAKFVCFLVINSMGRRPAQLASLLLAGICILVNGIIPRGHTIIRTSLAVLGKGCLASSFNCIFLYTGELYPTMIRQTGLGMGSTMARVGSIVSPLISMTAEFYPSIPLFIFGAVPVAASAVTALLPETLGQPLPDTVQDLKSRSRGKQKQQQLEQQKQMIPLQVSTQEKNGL
Method: (§1) Derivation of the stably transfected Chinese hamster ovary (CHO) cell lines expressing mOat1 (CHO-mOat1), mOat3 (CHO-mOat3), and the empty vector (FRT) transfected control cell line (CHO-FRT) was described previously.
Cell transport assay procedures were adapted from those previously published. In brief, 2 × 10^5 cells/well were seeded in 24-well tissue culture plates and grown in the absence of antibiotics for 48 hr. On the day of the experiment, cells were equilibrated with transport buffer for 10 min (500 μL of Hanks' balanced salt solution containing 10 mM HEPES, pH 7.4). […] After incubation, cells were immediately rinsed three times with ice-cold transport buffer, lysed, and analyzed via liquid scintillation counting. Uptake values were normalized to corresponding total protein content in cell lysates as determined by the Bradford method. Substrate accumulation is reported as picomoles of substrate per milligram protein. […] Kinetic calculations were performed using GraphPad Prism Software version 5.0 (GraphPad Software Inc., San Diego, CA, USA). Michaelis constant (K m) values were calculated by nonlinear regression using the Michaelis-Menten model. […] In this study, three curves were constructed (no inhibitor, plus two selected inhibitor concentrations) with uptake of substrate plotted as a function of its concentration for each condition. […] The parameter, α, can then be used to determine the mode of inhibition. When α is very large (α > 1), it indicates competitive inhibition. […] Results were confirmed by repeating all experiments at least three times with triplicate wells for each data point in every experiment.
Figure 3 Michaelis-Menten kinetics of PAH transport in CHO-mOat1 cells. In order to calculate K i values for mOat1, the K m value for PAH needed to be determined in the CHO-mOat1 cell system. […] The corrected curve (closed circles) was obtained by subtracting the nonspecific background uptake as measured in the CHO-FRT cells from CHO-mOat1 accumulation to allow analysis of mOat1-mediated activity. Experiments were repeated three times in triplicate, and Michaelis constant (K m) values were calculated by nonlinear regression using the Michaelis-Menten model. […] Graph shown is from a representative experiment with values plotted as mean ± S.D. (n = 3).
(§2) Figure 2 Inhibition profile of mOat1 and mOat3. […] (b) Inhibition of mOat3-mediated uptake of [^3H]ES (1 μM) by LSA, PCA, RMA, SAA, SAB, TSL, and probenecid (1000 μM) was measured in the CHO-mOat3 cells (10 min). […] Values are mean ± S.D. of triplicate values. ***denotes P < 0.001 as determined by one-way ANOVA followed by Dunnett's t-test.
Figure 4 K i determination for LSA, RMA, and SAA in the CHO-mOat1 cell line. […] (5 μM) in CHO-mOat1 cells was measured in the presence of increasing concentrations (10^−7 to 5 × 10^−4 M) of LSA, RMA, and SAA. Data were corrected for nonspecific background measured in the CHO-FRT cells prior to kinetic analysis. K i values were determined with non-linear regression and the “one-site competition” model using GraphPad Prism software. Graphs shown are from representative experiments with values plotted as mean ± S.D. (n = 3).

[3] = target: T1, mOat3; experiment: Inhibition of mOat3-mediated [3H]ES uptake in CHO-mOat3 cells (cell accumulation assay); type: cell-based, murine; details: for inhibition at 1000 µM: read-out: inhibition of mOat3-mediated ES uptake
Method: as §1
Cell transport assay procedures were adapted from those previously published. In brief, 2 × 10^5 cells/well were seeded in 24-well tissue culture plates and grown in the absence of antibiotics for 48 hr. On the day of the experiment, cells were equilibrated with transport buffer for 10 min (500 μL of Hanks' balanced salt solution containing 10 mM HEPES, pH 7.4). […] After incubation, cells were immediately rinsed three times with ice-cold transport buffer, lysed, and analyzed via liquid scintillation counting. Uptake values were normalized to corresponding total protein content in cell lysates as determined by the Bradford method. Substrate accumulation is reported as picomoles of substrate per milligram protein. […] Kinetic calculations were performed using GraphPad Prism Software version 5.0 (GraphPad Software Inc., San Diego, CA, USA). Michaelis constant (K m) values were calculated by nonlinear regression using the Michaelis-Menten model. Mode of inhibition was identified by using mixed model inhibition analysis as follows: (1) Vmax Apparent =Vmax/(1+[I]/(α×Ki)),Km Apparent=Km1+[I]/Ki/(1+[I]/(α×Ki)),Y=Vmax Apparent×x/Km Apparent+x, where V max, K i, and I represent the maximum transport velocity without inhibitor, the inhibition constant generated from the data set under analysis, and the concentration of inhibitor, respectively. In this study, three curves were constructed (no inhibitor, plus two selected inhibitor concentrations) with uptake of substrate plotted as a function of its concentration for each condition. […] The parameter, α, can then be used to determine the mode of inhibition. When α is very large (α > 1), it indicates competitive inhibition. Otherwise, it indicates noncompetitive inhibition (α = 1) or uncompetitive inhibition (0 < α < 1). To estimate K i values, IC50 values were calculated using nonlinear regression and inserted into the Cheng-Prusoff equation: K i = IC50/(1 + [Substrate]/K m). Results were confirmed by repeating all experiments at least three times with triplicate wells for each data point in every experiment.
as §2, with “mOat3. […] (5 μM) by LSA, PCA, RMA, SAA, SAB, TSL, and probenecid (1000 μM) was measured in the CHO-mOat1 cells (10 min).” for “mOat3.”
Figure 5 K i determination for LSA, RMA, and SAA in the CHO-mOat3 cell line. One minute uptake of [^3H]ES (1 μM) in CHO-mOat3 cells was measured in the presence of increasing concentrations (10^−7 to 4 × 10^−4 M) of LSA, RMA, and SAA. Data were corrected for nonspecific background measured in the CHO-FRT cells prior to kinetic analysis. K i values were determined with non-linear regression and the “one-site competition” model using GraphPad Prism software. Graphs shown are from representative experiments with values plotted as mean ± S.D. (n = 3).

[4] = target: T2, mOat1; parameters: method as in PMID 21546538; details: cited from earlier work
[5] = target: T1, mOat3; parameters: method as in PMID 21546538; details: cited from earlier work
[6] = system: hOAT1; parameters: method as in PMID 15870380; details: cited from earlier work
[7] = target: T1, mOat3; parameters: method as in PMID 19953504, PMID 17553798, PMID 18973812; details: read-out: K i for mOat3; cited from earlier work
[8] = rats; cited from earlier work
[9] = 1 mM (1000 μM) inhibitor, 1 μM [3H]ES, 10 min, CHO-mOat3 cells

C[C@]12CC[C@@H]3c4ccc(OS(=O)(=O)O)cc4CC[C@H]3[C@@H]1CCC2=O [ES, estrone sulfate]
K m of ES on mOat3 [1]: 12.2 ± 4.8 µM

O=C(O)c1ccc(O)c(O)c1 [PCA, protocatechuic acid]
inhibition at 1000 µM [2]: > 95%
inhibition at 1000 µM [3]: > 91%

COc1cccc2c1cc([N+](=O)[O-])c1c(C(=O)O)cc3c(c12)OCO3 [aristolochic acid]
K m as substrate for mOat1 [4]: 0.79 µM
K m as substrate for mOat3 [5]: 0.514 µM

O=c1oc2c(O)c(O)cc3c(=O)oc4c(O)c(O)cc1c4c23 [ellagic acid]
IC50 [6]: 0.207 µM

CCCN(CCC)S(=O)(=O)c1ccc(C(=O)O)cc1 [probenecid, reference compound]
Ki [7]: 4.6 µM
inhibition at 1000 µM [3, 9]: > 91%

salvianolic acid B [SAB]
increase of AUC on spiking additional SAA into Danshen preparations [8]: 82.4%
reduction of clearance on spiking additional SAA into Danshen preparations [8]: 46.8%
inhibition of mOat3-mediated ES uptake [3, 9]: approximately 53%
